Experimental data from patent US6355616B1, “Derivative compounds derived from or based on bactericidal/permeability-increasing protein” (priority 1999, dated 2002).
Where two headings read alike, the source gives them in different places. Non-standard residues stand in square brackets, D forms with d. Residues, ends and D or L forms follow the SMILES beside them. Aun = NCCCCCCCCCCC(=O)O; Aoc = NCCCCCCCC(=O)O

What was measured:
Candida albicans, SLU-1 = assay: 28-day comparative survival efficacy study in mice systemically infected with Candida albicans; assay type: in vivo, male DBA/2 mice; settings: for improvement in mortality compared with dextrose-treated controls: mice infected iv with C. albicans SLU-1, two doses less than 5 mg/kg, initial experiments (p>0.5)
Experimental: Derivatized peptide-based constructs are tested for activity upon oral administration (oral activity) in a 28-day comparative survival efficacy study in mice systemically infected with Candida albicans. Specifically, male DBA/2 mice (Charles River Laboratories) six weeks of age are dosed with 7.9×10^4 Candida albicans, SLU-1 in 100 μL intravenously via the tail vein in a single dosage on day zero (0). However, other routes of administration, including intraperitoneal (ip) and subcutaneous (sc) routes may be administered. Amphotericin B will provide complete protection at 0.5 mg/kg qod (100% survival). Mortality data will be subjected to Kaplan-Meier survival analysis. All treatment groups may be considered statistically significant vs. saline at p values <0.05.
Treatment begins immediately thereafter with 400 μL oral gavage of either 0.5% dextrose, or derivative compound in 0.5% dextrose at various dosage levels (e.g., 10 mg/kg or 20 mg/kg) according to a prescribed dosing regimen (e.g. every other day for a total of eight times). Amphotericin B (Fungizone®) is administered intravenously at 0.5 mg/kg as a positive control every other day for a total of eight times. Twice-day monitoring (once daily on weekends and holidays) for mortality is performed. The animals treated with antiflngal derivative compound show improvement in mortality compared with the dextrose-treated controls, preferably statistically significant improvement (p-value of […]).

Candida albicans SLU-1 = assay: Radial diffusion assay; assay type: cell-based
Experimental: In the radial diffusion assay procedures, the CA-1 cultures and derivatized peptide solutions were prepared as in the broth microdilution assay procedure described above, i.e., CA-1 was grown to exponential phase in SDB. Ten (10) mL of molten underlayer agarose comprising 3% Sabouraud Dextrose broth, 1% agarose (Pharmacia, Piscataway, N.J.), 0.02% Tween 20, and 10 mM sodium phosphate at pH 7.4, was added to polystyrene tubes and maintained in a 56° C. water bath until the addition of yeast. Tubes were cooled to approximately 45° C., yeast were added to give a final concentration of 1×10^6 CFU/mL, and the tubes were mixed again by inverting. The contents were poured into leveled, square petri dishes and distributed evenly. […] A series of wells were punched into the hardened agarose using a sterile 3 mm punch attached to a vacuum apparatus to achieve a uniform, 3 mm diameter well.
Derivatized peptide sequences to be assayed were 2-fold serially diluted in 10 mM Dulbecco's PBS (D-PBS) starting from a concentration of approximately […]. Five μL of each dilution were added to each well and the plates were incubated at 37° C. for 3 hours to allow for complete diffusion of the test compounds. An overlayer of 10 mL of molten agarose comprising 6% Sabouraud Dextrose broth, 1% agarose, and 10 mM sodium phosphate, pH 7.4, (at approximately 45° C.) was then added and plates were incubated overnight at 37° C. Following this overnight incubation, a dilute Coomassie solution was poured into the plates and allowed to stain for 24 hours to enhance visualization of the zones.
Clear zones of growth inhibition around each well were measured with calipers. The actual area of growth inhibition (mm^2) was calculated by subtracting the area of the well. Table II below sets out the results of the radial diffusion assays for a series of tested peptide-based constructs in terms of the number of picomoles (pmol) of compound required to establish a 30 mm^2 area of growth inhibition of Candida albicans SLU-1 calculated by PROBIT analysis (e.g., calculated from regression of the linear portion of log-concentration dose-response curve, log pmol/well vs. net area of inhibition).

[1] = system: Candida albicans designated CA-1, Strain SLU-1; assay type: cell-based
Experimental: In each broth microdilution assay screening procedure, a colony of Candida albicans designated CA-1, Strain SLU-1 that was received from the laboratories of G. Matuschak and A. Lechner, St. Louis University Hospital, St. Louis, Mo., where the strain was maintained, was inoculated into a tube containing 5 mL Sabouraud Dextrose broth (2% dextrose, 1% neopeptone) and incubated at 37° C. with shaking. The overnight culture was diluted 1:50 into 5 ml of fresh broth and incubated for 3 hours at 37° C. to exponential phase growth. Organisms were pelleted by centrifugation in a Beckman J-6M centrifuge for 5 minutes at 3000 rpm (1500×g) and the pellets were resuspended in 5 mL phosphate buffered saline (PBS) and the optical density (OD) at 570 nm was determined. On the basis of the determination that one OD unit equals 3×10^7 colony forming units/mL (CFU/mL), yeast cells were diluted to 5×10^3 CFU/mL in Sabouraud Dextrose broth (SBD).
Derivatized peptide sequences based on Domain III of BPI to be screened which were originally constituted in Dulbecco's-PBS, were two-fold serially diluted in SDB starting from a concentration of 128 μg/mL. Equal volumes (100 μL) of yeast suspension as prepared above and derivatized peptide solution were added to wells of a 96-well sterile, flat bottom, non-pyrogenic tissue culture microtiter plate (Costar, Cambridge, Mass.) to reach a final volume of 200 μL/well. The plate was incubated on a shaker at 37° C. for 24 hours. All assays were performed in triplicate. Following the incubation period, plates were read in an ELISA plate reader at 595 nm wavelength to determine the minimum inhibitory concentration (MIC), i.e., the lowest concentration required to reduce the optical density at 595 nm to below 0.1 OD.

[2] = 30 mm^2 area of growth inhibition, calculated by PROBIT analysis
[3] = designated CA-1, Strain SLU-1, 24 h

Q: With C[C@@H]1[C@H](O)[C@@H](C)/C=C/C=C/C=C/C=C/C=C/C=C/C=C/[C@H](O[C@@H]2O[C@H](C)[C@@H](O)[C@H](N)[C@@H]2O)C[C@@H]2O[C@](O)(C[C@@H](O)C[C@@H](O)[C@H](O)CC[C@@H](O)C[C@@H](O)CC(=O)O[C@H]1C)C[C@H](O)[C@H]2C(=O)O [Amphotericin B, reference compound] as the compound, how does the survival (Candida albicans, SLU-1; 0.5 mg/kg qod, positive control, 'will provide complete protection') read?
A: 100%

Q: Which “Radial Diffusion (pmol to achieve 30 mm^2 zone C. albicans SLU1)” value (“Radial Diffusion” for short) (Candida albicans SLU-1; [2]) does the source give for CC[C@@H](C)[C@@H](NC(=O)[C@@H](CC(C)C)NC(=O)[C@@H](Cc1c[nH]c2ccccc12)NC(=O)[C@@H](CCCCN)NC(=O)CCCCCCCN)C(=O)N[C@H](CCC(N)=O)C(=O)N[C@H](CC(C)C)C(=O)N[C@H](Cc1ccccc1)C(=O)N[C@H](Cc1c[nH]cn1)C(=O)N[C@H](CCCCN)C(=O)N[C@H](CCCCN)C(N)=O [XMP.416] (H-[Aoc][dK][dW][dL][dI][dQ][dL][dF][dH][dK][dK]-NH2) here?
A: 410 pmol

Q: What about the “Broth Microdilution (MIC values in μg/mL C. albicans SLU1)” value (“Broth Microdilution” below) [1, 3] of the same compound?
A: 1 µg/mL

Q: What does the source list for CC[C@@H](C)[C@@H](NC(=O)[C@@H](CC(C)C)NC(=O)[C@@H](Cc1c[nH]c2ccccc12)NC(=O)[C@@H](CCCCN)NC(=O)CCCCCCCCCCN)C(=O)N[C@H](CCC(N)=O)C(=O)N[C@H](CC(C)C)C(=O)N[C@H](Cc1ccccc1)C(=O)N[C@H](Cc1c[nH]cn1)C(=O)N[C@H](CCCCN)C(=O)N[C@H](CCCCN)C(N)=O [XMP.496] (H-[Aun][dK][dW][dL][dI][dQ][dL][dF][dH][dK][dK]-NH2)?
A: Radial Diffusion (pmol to achieve 30 mm^2 zone C. albicans SLU1) (Candida albicans SLU-1; [2]): 434 pmol; Broth Microdilution (MIC values in μg/mL C. albicans SLU1) [1, 3]: 1 µg/mL; improvement in mortality compared with dextrose-treated controls (Candida albicans, SLU-1): did not exhibit statistically significant improvement

Q: For CC[C@@H](C)[C@@H](NC(=O)[C@@H](CC(C)C)NC(=O)[C@@H](Cc1c[nH]c2ccccc12)NC(=O)[C@@H](CCCCN)NC(=O)c1c[nH]cn1)C(=O)N[C@H](CCC(N)=O)C(=O)N[C@H](CC(C)C)C(=O)N[C@H](Cc1ccccc1)C(=O)N[C@H](Cc1c[nH]cn1)C(=O)N[C@H](CCCCN)C(=O)N[C@H](CCCCN)C(N)=O [XMP.500], which “improvement in mortality compared with dextrose-treated controls” value (Candida albicans, SLU-1) is on record?
A: did not exhibit statistically significant improvement

Q: What does the source list for CC[C@@H](C)[C@@H](NC(=O)[C@@H](CC(C)C)NC(=O)[C@@H](Cc1c[nH]c2ccccc12)NC(=O)[C@@H](CCCCN)NC(C)=O)C(=O)N[C@H](CCC(N)=O)C(=O)N[C@H](CC(C)C)C(=O)N[C@H](Cc1ccccc1)C(=O)N[C@H](Cc1c[nH]cn1)C(=O)N[C@H](CCCCN)C(=O)N[C@H](CCCCNC(=O)CCCC[C@@H]1SC[C@@H]2NC(=O)N[C@@H]21)C(N)=O [XMP.518]?
A: Radial Diffusion (pmol to achieve 30 mm^2 zone C. albicans SLU1) (Candida albicans SLU-1; [2]): 484 pmol; Broth Microdilution (MIC values in μg/mL C. albicans SLU1) [1, 3]: 8 µg/mL

Q: Which results are given for CC[C@@H](C)[C@@H](NC(=O)[C@@H](CC(C)C)NC(=O)[C@@H](Cc1c[nH]c2ccccc12)NC(=O)[C@@H](CCCCN)NC(C)=O)C(=O)N[C@H](CCC(N)=O)C(=O)N[C@H](CC(C)C)C(=O)N[C@H](Cc1ccccc1)C(=O)N[C@H](Cc1c[nH]cn1)C(=O)N[C@H](CCCCNC(=O)CCCC[C@@H]1SC[C@@H]2NC(=O)N[C@@H]21)C(=O)N[C@H](CCCCN)C(N)=O [XMP.521]?
A: Radial Diffusion (pmol to achieve 30 mm^2 zone C. albicans SLU1) (Candida albicans SLU-1; [2]): 959 pmol; Broth Microdilution (MIC values in μg/mL C. albicans SLU1) [1, 3]: 16 µg/mL

Q: What does the source list for CC[C@@H](C)[C@@H](NC(=O)[C@@H](CC(C)C)NC(=O)[C@@H](Cc1c[nH]c2ccccc12)NC(=O)[C@@H](CCCCN)NC(=O)c1cc2ccccc2o1)C(=O)N[C@H](CCC(N)=O)C(=O)N[C@H](CC(C)C)C(=O)N[C@H](Cc1ccccc1)C(=O)N[C@H](Cc1c[nH]cn1)C(=O)N[C@H](CCCCN)C(=O)N[C@H](CCCCN)C(N)=O [XMP.536]?
A: Radial Diffusion (pmol to achieve 30 mm^2 zone C. albicans SLU1) (Candida albicans SLU-1; [2]): >3,371 pmol; Broth Microdilution (MIC values in μg/mL C. albicans SLU1) [1, 3]: 4 µg/mL

Q: What does the source list for CC[C@@H](C)[C@@H](NC(=O)[C@@H](CC(C)C)NC(=O)[C@@H](Cc1c[nH]c2ccccc12)NC(=O)[C@@H](CCCCN)NC(=O)c1cc2ccccc2[nH]1)C(=O)N[C@H](CCC(N)=O)C(=O)N[C@H](CC(C)C)C(=O)N[C@H](Cc1ccccc1)C(=O)N[C@H](Cc1c[nH]cn1)C(=O)N[C@H](CCCCN)C(=O)N[C@H](CCCCN)C(N)=O [XMP.545]?
A: Radial Diffusion (pmol to achieve 30 mm^2 zone C. albicans SLU1) (Candida albicans SLU-1; [2]): 1,635 pmol; Broth Microdilution (MIC values in μg/mL C. albicans SLU1) [1, 3]: 8 µg/mL

Q: For CC[C@@H](C)[C@@H](NC(=O)[C@@H](CC(C)C)NC(=O)[C@@H](Cc1c[nH]c2ccccc12)NC(=O)[C@@H](CCCCN)NC(=O)c1nccc2ccccc12)C(=O)N[C@H](CCC(N)=O)C(=O)N[C@H](CC(C)C)C(=O)N[C@H](Cc1ccccc1)C(=O)N[C@H](Cc1c[nH]cn1)C(=O)N[C@H](CCCCN)C(=O)N[C@H](CCCCN)C(N)=O [XMP.546], which “Radial Diffusion” value (Candida albicans SLU-1; [2]) is on record?
A: >3,371 pmol

Q: What about the “Broth Microdilution” value [1, 3] of the same compound?
A: >64 µg/mL

Q: What does the source list for CC[C@@H](C)[C@@H](NC(=O)[C@@H](CC(C)C)NC(=O)[C@@H](Cc1c[nH]c2ccccc12)NC(=O)[C@@H](CCCCN)NC(=O)c1ccc2ccccc2n1)C(=O)N[C@H](CCC(N)=O)C(=O)N[C@H](CC(C)C)C(=O)N[C@H](Cc1ccccc1)C(=O)N[C@H](Cc1c[nH]cn1)C(=O)N[C@H](CCCCN)C(=O)N[C@H](CCCCN)C(N)=O [XMP.596]?
A: Radial Diffusion (pmol to achieve 30 mm^2 zone C. albicans SLU1) (Candida albicans SLU-1; [2]): 3,140 pmol; Broth Microdilution (MIC values in μg/mL C. albicans SLU1) [1, 3]: 2 µg/mL

Q: How did the “Radial Diffusion” value (Candida albicans SLU-1; [2]) turn out when CC[C@@H](C)[C@@H](NC(=O)[C@@H](CC(C)C)NC(=O)[C@@H](Cc1c[nH]c2ccccc12)NC(=O)[C@@H](CCCCN)NC(=O)c1cccc(Cl)c1[N+](=O)[O-])C(=O)N[C@H](CCC(N)=O)C(=O)N[C@H](CC(C)C)C(=O)N[C@H](Cc1ccccc1)C(=O)N[C@H](Cc1c[nH]cn1)C(=O)N[C@H](CCCCN)C(=O)N[C@H](CCCCN)C(N)=O [XMP.618] was run?
A: 2,146 pmol

Q: And the “Broth Microdilution” value [1, 3]?
A: 4 µg/mL

Q: For “XMP.503: R1 = pyridine carbonyl, R2 = R3 = H (KWLIQLFHKK; XMP.503; Position 1 is derivatized at the alpha-amino with: pyridine carbonyl; Positions 1-10 are D-Amino Acids; AMIDATION=The C-terminus is Amidated)”, which “improvement in mortality compared with dextrose-treated controls” value (Candida albicans, SLU-1) is on record?
A: did not exhibit statistically significant improvement

Q: How did the “Radial Diffusion” value (Candida albicans SLU-1) turn out when “XMP.535: peptide-based construct; derivatization not given in Table I (KWLIQLFHKK; XMP.535; Position 1 is derivatized at the alpha-amino with: anthraquinone carbonyl; Positions 1-10 are D-Amino Acids; AMIDATION=The C-terminus is Amidated)” was run?
A: b (no detectable activity up to 5 μg/well)

Q: And the “Broth Microdilution” value ([1]; C. albicans SLU1)?
A: b (no detectable activity up to 5 μg/well)
